Reference: patent publication US20090326003A1, “PYRAZOLO (3, 4-B) PYRIDINE DERIVATIVES AS PDE4 INHIBITORS” (priority 2006, published 2009)
Where a name gives a salt, the structure may show the parent alone.

Each compound was assayed against T1, PDE4B (human recombinant) (Homo sapiens, UniProt Q07343) (assay: PDE4B inhibition, fluorescence polarisation (FP) and/or SPA assay). Conditions: n=1 or average of 2 or more readings, accuracy ±about 0.5 log unit, read-out: PDE4B pIC50 (generally in FP assay) (±about 0.5) (converted).
T1 construct: made in house
T1 sequence (Q07343 1-564 isoform Q07343-2): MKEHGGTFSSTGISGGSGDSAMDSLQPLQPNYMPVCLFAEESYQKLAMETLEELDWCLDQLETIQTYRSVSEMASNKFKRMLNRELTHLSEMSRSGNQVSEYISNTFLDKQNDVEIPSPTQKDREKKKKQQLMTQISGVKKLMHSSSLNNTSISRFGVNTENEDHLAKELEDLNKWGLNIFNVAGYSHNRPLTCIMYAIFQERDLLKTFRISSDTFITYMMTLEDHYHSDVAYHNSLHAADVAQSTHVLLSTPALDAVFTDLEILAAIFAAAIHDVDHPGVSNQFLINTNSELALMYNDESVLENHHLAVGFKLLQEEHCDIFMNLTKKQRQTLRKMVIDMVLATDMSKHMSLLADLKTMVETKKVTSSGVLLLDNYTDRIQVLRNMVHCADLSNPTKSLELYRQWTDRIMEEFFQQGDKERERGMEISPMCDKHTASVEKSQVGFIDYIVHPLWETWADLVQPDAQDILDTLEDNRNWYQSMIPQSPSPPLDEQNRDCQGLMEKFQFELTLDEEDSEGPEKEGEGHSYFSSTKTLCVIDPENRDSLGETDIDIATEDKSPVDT
Format: biochemical
Source text: Human recombinant PDE4B, in particular the 2B splice variant thereof (HSPDE4B2B), is disclosed in WO 94/20079 and also M. M. McLaughlin et al., “A low Km, rolipram-sensitive, cAMP-specific phosphodiesterase from human brain: cloning and expression of cDNA, biochemical characterisation of recombinant protein, and tissue distribution of mRNA”, J. Biol. Chem., 1993, 268, 6470-6476. For example, in Example 1 of WO 94/20079, human recombinant PDE4B is described as being expressed in the PDE-deficient yeast Saccharomyces cerevisiae strain GL62, e.g. after induction by addition of 150 uM CuSO4, and 100,000×g supernatant fractions of yeast cell lysates are described for use in the harvesting of PDE4B enzyme.
The ability of compounds to inhibit catalytic activity at PDE4B or 4D (human recombinant), PDE3 (from bovine aorta), PDE5 (human recombinant) or PDE6 (from bovine retina) can optionally be determined by Scintillation Proximity Assay (SPA) in a 96-well format.
Test compounds (as a solution in DMSO, preferably about 2 microliter (ul) volume of DMSO solution) are preincubated at ambient temperature (room temperature, e.g. 19-23° C.) in Wallac Isoplates (code 1450-514) with PDE enzyme in 50 mM Tris-HCl buffer pH 7.5, 8.3 mM MgCl2, 1.7 mM EGTA, 0.05% (w/v) bovine serum albumin for 10-30 minutes (usually 30 minutes). The enzyme concentration is adjusted so that no more than 20% hydrolysis of the substrate defined below occurs in control wells without compound, during the incubation. For the PDE3, PDE4B and PDE4D assays, [5′,8-3H]Adenosine 3′,5′-cyclic phosphate (Amersham Pharmacia Biotech, code TRK.559; or Amersham Biosciences UK Ltd, Pollards Wood, Chalfont St Giles, Buckinghamshire HP8 4SP, UK) is added to give 0.05 uCi per well and about 10 nM final concentration. For the PDE5 and PDE6 assays, [8-^3H]Guanosine 3′,5′-cyclic phosphate (Amersham Pharmacia Biotech, code TRK.392) is added to give 0.05 uCi per well and about 36 nM final concentration. Plates containing assay mixture, preferably approx. 100 ul volume of assay mixture, are mixed on an orbital shaker for 5 minutes and incubated at ambient temperature for 1 hour. Phosphodiesterase SPA beads (Amersham Pharmacia Biotech, code RPNQ 0150) are added (about 1 mg per well) to terminate the assay. Plates are sealed and shaken and allowed to stand at ambient temperature for 35 minutes to 1 hour (preferably 35 minutes) to allow the beads to settle. Bound radioactive product is measured using a WALLAC TRILUX 1450 Microbeta scintillation counter. For inhibition curves, 10 concentrations (e.g. 1.5 nM-30 uM) of each compound are assayed. Curves are analysed using ActivityBase and XLfit (ID Business Solutions Limited, 2 Ocean Court, Surrey Research Park, Guildford, Surrey GU2 7QB, United Kingdom) Results are expressed as pIC50 values.
The ability of compounds to inhibit catalytic activity at PDE4B (human recombinant) or PDE4D (human recombinant) can optionally be determined by IMAP Fluorescence Polarisation (FP) assay (IMAP Explorer kit, available from Molecular Devices Corporation, Sunnydale, Calif., USA; Molecular Devices code: R8062) in 384-well format.
The IMAP FP assay is able to measure PDE activity in an homogenous, non-radioactive assay format. The FP assay uses the ability of immobilised trivalent metal cations, coated onto nanoparticles (tiny beads), to bind the phosphate group of FI-AMP that is produced on the hydrolysis of fluorescein-labelled (FI) cyclic adenosine mono-phosphate (FI-cAMP) to the non-cyclic FI-AMP form. […] Binding of FI-AMP product to the beads (coated with the immobilised trivalent cations) slows the rotation of the bound FI-AMP and leads to an increase in the fluorescence polarisation ratio of parallel to perpendicular light. Inhibition of the PDE reduces/inhibits this signal increase. […]

Structure (SMILES)	IC50 [nM]
CCc1nc2c(cnn2CC)c(NC2CCOCC2)c1CNC(=O)COCC(=O)NCc1c(CC)nc2c(cnn2CC)c1NC1CCOCC1 [Example 9, 2,2′-oxybis(N-{[1,6-diethyl-4-(tetrahydro-2H-pyran-4-ylamino)-1H-pyrazolo[3,4-b]pyridin-5-yl]methyl}acetamide)]	0.126 to 1
CCc1nc2c(cnn2CC)c(NC2CCN(C(N)=O)CC2)c1CNC(=O)CCc1ccc(C(=O)NCc2c(CC)nc3c(cnn3CC)c2NC2CCN(C(N)=O)CC2)cc1 [Example 14, 4-({5-[({3-[4-({[(4-{[1-(aminocarbonyl)-4-piperidinyl]amino}-1,6-diethyl-1H-pyrazolo[3,4-b]pyridin-5-yl)methyl]amino}carbonyl)phenyl]propanoyl}amino)methyl]-1,6-diethyl-1H-pyrazolo[3,4-b]pyridin-4-yl}amino)-1-piperidinecarboxamide trifluoroacetate]	0.0158 to 0.1
CCc1nc2c(cnn2CC)c(NC2CCOCC2)c1CNC(=O)Cc1ccc(CC(=O)NCc2c(CC)nc3c(cnn3CC)c2NC2CCOCC2)cc1 [Example 6, 2,2′-benzene-1,4-diylbis(N-{[1,6-diethyl-4-(tetrahydro-2H-pyran-4-ylamino)-1H-pyrazolo[3,4-b]pyridin-5-yl]methyl}acetamide)]	0.126 to 1
CCc1nc2c(cnn2CC)c(NC2CCOCC2)c1CNC(=O)c1ccc(C(=O)NCc2c(CC)nc3c(cnn3CC)c2NC2CCOCC2)cc1 [Example 22, N,N′-bis{[1,6-diethyl-4-(tetrahydro-2H-pyran-4-ylamino)-1H-pyrazolo[3,4-b]pyridin-5-yl]methyl}-1,4-benzenedicarboxamide]	0.126 to 1
CCc1nc2c(cnn2CC)c(NC2CCOCC2)c1CNC(=O)c1ccc(Cc2ccc(C(=O)NCc3c(CC)nc4c(cnn4CC)c3NC3CCOCC3)cc2)cc1 [Example 5, 4,4′-methanediylbis(N-{[1,6-diethyl-4-(tetrahydro-2H-pyran-4-ylamino)-1H-pyrazolo[3,4-b]pyridin-5-yl]methyl}benzamide)]	0.0158 to 0.1
CCc1nc2c(cnn2CC)c(NC2CCOCC2)c1CNC(=O)c1cccc(-c2cccc(C(=O)NCc3c(CC)nc4c(cnn4CC)c3NC3CCOCC3)c2)c1 [Example 10, N,N′-bis{[1,6-diethyl-4-(tetrahydro-2H-pyran-4-ylamino)-1H-pyrazolo[3,4-b]pyridin-5-yl]methyl}-3,3′-biphenyldicarboxamide]	~0.1
CCc1nc2c(cnn2CC)c(NC2CCOCC2)c1CNC(=O)c1ccnc(-c2cc(C(=O)NCc3c(CC)nc4c(cnn4CC)c3NC3CCOCC3)ccn2)c1 [Example 31, N,N′-bis{[1,6-diethyl-4-(tetrahydro-2H-pyran-4-ylamino)-1H-pyrazolo[3,4-b]pyridin-5-yl]methyl}-2,2′-bipyridine-4,4′-dicarboxamide]	0.0158 to 0.1
CCc1nc2c(cnn2CC)c(NC2CCOCC2)c1CNC(=O)Cc1cccc(CC(=O)NCc2c(CC)nc3c(cnn3CC)c2NC2CCOCC2)c1 [Example 8, 2,2′-benzene-1,3-diylbis(N-{[1,6-diethyl-4-(tetrahydro-2H-pyran-4-ylamino)-1H-pyrazolo[3,4-b]pyridin-5-yl]methyl}acetamide)]	0.126 to 1
CCc1nc2c(cnn2CC)c(NC2CCN(C(N)=O)CC2)c1CNC(=O)c1ccc(Cc2ccc(C(=O)NCc3c(CC)nc4c(cnn4CC)c3NC3CCN(C(N)=O)CC3)cc2)cc1 [Example 18, 4,4′-{methanediylbis[benzene-4,1-diyl(oxomethanediyl)iminomethanediyl(1,6-diethyl-1H-pyrazolo[3,4-b]pyridine-5,4-diyl)imino]}di(1-piperidinecarboxamide) trifluoroacetate]	0.0158 to 0.1
CCc1nc2c(cnn2CC)c(NC2CCN(C(N)=O)CC2)c1CNC(=O)c1ccc(Oc2ccc(C(=O)NCc3c(CC)nc4c(cnn4CC)c3NC3CCN(C(N)=O)CC3)cc2)cc1 [Example 27, 4,4′-{oxybis[benzene-4,1-diyl(oxomethanediyl)iminomethanediyl(1,6-diethyl-1H-pyrazolo[3,4-b]pyridine-5,4-diyl)imino]}di(1-piperidinecarboxamide)]	0.0158 to 0.1

What follows are compounds tested on TNF-α production in human PBMC (peripheral blood mononuclear cells) (assay: Inhibition of TNF-alpha production in human PBMC (MSD technology)). Conditions: inhibition of LPS-stimulated TNF-α production in human PBMC; measured and/or mean; read-out: PBMC pIC50 (MSD assay) (converted).
Format: cell-based
Description: A 96-well plate (96 MicroWell™ Plates Nunclon™Δ-High Flange Design, Fisher Scientific UK, Bishop Meadow Road, Loughborough LE 11 5 RG, Leicestershire, UK) is prepared by initially adding to column 1 ca. 10 mM of test compound dissolved in DMSO. […] The compound is further diluted with DMSO into columns 2 to 9 by 8 successive 3fold dilutions using the Biomek® FX Laboratory Automation Workstation (Beckman Coulter, Inc., 4300 N. Harbor Boulevard, P.O. Box 3100, Fullerton, Calif. 92834-3100 USA). Column 10 is used as a DMSO negative control (High Signal, 0% response), whilst column 11, which contains 10 mM of the PDE4 inhibitor roflumilast, is used as a positive control (Low Signal, 100% response). About 1 μl (about 1 ul) of compound is transferred to the compound plate using the Biomek® FX.
PBMC cells (peripheral blood mononuclear cells) are prepared from heparinised human blood (using 1% v/v Heparin Sodium 10001 U/ml Endotoxin Free, Leo Laboratories Ltd., Cashel Road, Dublin 12. Ireland, Cat No: PL0043/0149) from normal volunteers using the Accuspin™ System-Histopaque®-1077 essentially (Sigma-Aldrich Company Ltd., The Old Brickyard New Rd, Gillingham Dorset SP8 4XT). About 20 ml of blood is overlaid onto 15 ml Histopaque® in Accuspin™ tubes. The tube is then centrifuged at about 800 g for ca. 20 minutes. The cells are collected from the interface, washed by centrifugation (ca. 1300 g, ca. 10 minutes) and resuspended in RPMI1640 medium (Low endotoxin RPMI1640 medium, Cat No: 31870-025, Invitrogen Corporation Invitrogen Ltd, 3 Fountain Drive, Inchinnan Business Park, Paisley PA4 9RF, UK) containing 10% foetal calf serum, 1% L-glutamine (Invitrogen Corporation, Cat No: 25030024) and 1% penicillin/streptomycin (Invitrogen Corporation, Cat No: 15140-122). Viable cells are counted by trypan blue staining and diluted to 1×10^6 viable cells/ml. About 50 μl (about 50 ul) of diluted cells and about 75 μl (about 75 ul) of LPS (ca. 1 ng/ml final; Sigma Cat No: L-6386) are added to the compound plate, which is then incubated at 37° C., 5% CO2, for 20 hours.
The supernatant is removed and the concentrations of TNF-α are determined by electrochemiluminescence assay using the Meso Scale Discovery (MSD) technology (Meso Scale Discovery, 9238 Gaither Road, Gaithersburg, Md. 20877, USA). See the “TNF-α (TNF-alpha) MSD Assay” described below for typical details.
Using the Biomek FX, 25 μl (25 ul) of MSD Human Serum Cytokine Assay Diluent (Meso Scale Discovery, 9238 Gaither Road, Gaithersburg, Md. 20877) is added to a 96-well High-Bind MSD plate pre-coated with anti-hTNF alpha capture antibody (MA6000) and then incubated for 24 hours at 4° C. to prevent non-specific binding. […]
For the PBMC assay, about 20 μl (ul) of diluted sulfo-TAG antibody (ca. 1 μg/ml final) is added to each well, and the plates/wells are shaken at room temperature for 2 hours. Finally, about 90 μl (ul) of MSD Read Buffer P (diluted to 2.5 times with distilled water) is added and the plates are read on a MSD Sector 6000.
Data analysis is performed with ActivityBase/XC50 module (ID Business Solutions Ltd., 2 Occam Court, Surrey Research Park, Guildford, Surrey, GU2 7QB UK). Data are normalized and expressed as % inhibition using the formula 100*((U-C1)/(C2-C1)) where U is the unknown value, C1 is the average of the high signal (0%) control wells (column 10), and C2 is the average of the low signal (100%) control wells (column 11). […]

Structure (SMILES)	IC50 [nM]
CCc1nc2c(cnn2CC)c(NC2CCOCC2)c1CNC(=O)c1cccc(-c2cccc(C(=O)NCc3c(CC)nc4c(cnn4CC)c3NC3CCOCC3)c2)c1 [Example 10, N,N′-bis{[1,6-diethyl-4-(tetrahydro-2H-pyran-4-ylamino)-1H-pyrazolo[3,4-b]pyridin-5-yl]methyl}-3,3′-biphenyldicarboxamide]	~0.02
